# Test results published in patent publication US7329646B2, “Derivatives of the insulinotropic peptide exendin-4 and methods of production thereof” (Shanghai Huayi Bio-Lab Co., Ltd., priority 2001, dated 2008).
# Key:
# Assay type in all cases: in vivo
# [1] = tested on: non-diabetic C57 BL/6J mice; experiment: Blood glucose after glucose challenge in non-diabetic C57 BL/6J mice (Example 3); details: overnight-fasted mice; 20% glucose (200 μl) i.p. with simultaneous s.c. peptide: GLP-1 1 μg, exendin-4 0.2 μg, derivative 0.2 μg; 0, 30, 60, 120 minutes; FIG. 2
# Method: Experiments were conducted to determine the effect on the blood glucose levels of non-diabetic C57 BL/6J mice of the exendin-4 (Leu14, Lys20, Arg40) peptide derivative relative to GLP-1 and the wild-type exendin-4 peptide. Overnight-fasted C57 BL/6J mice weighing 20 g were injected with a 20% glucose solution (200 μl) intra-peritoneally and simultaneously subcutaneously injected with either a saline control, GLP-1 (1 μg), exendin-4 (0.2 μg), or exendin-4 (Leu14, Lys20, Arg40) (0.2 μg). Blood glucose levels were determined using standard glucose determination kits at 0, 30, 60, and 120 minutes post-injection.
# [2] = tested on: db/db diabetic mice; experiment: Blood glucose after glucose challenge in db/db diabetic mice (Example 4); details: 2-hour-fasted db/db mice; 20% glucose (200 μl) i.p. with simultaneous s.c. GLP-1 4 μg, E4m 0.2 μg or Humalog 4 μg; 0-180 minutes; FIG. 3
# Method: In order to extend the experimental results obtained in Example 3 with non-diabetic mice, experiments were also conducted to determine the effect on blood glucose levels of db/db diabetic mice of the exendin-4 (Leu14, Lys20, Arg40) peptide derivative relative to GLP-1 and Rapid Insulin.
# Specifically, 2-hour-fasted db/db mice weighing 50 g were injected with a 20% glucose solution (200 μl) intra-peritoneally and simultaneously subcutaneously injected with either a saline control, GLP-1 (4 μg), exendin-4 (Leu14, Lys20, Arg40) (“E4m”)(0.2 μg), or the commercially available insulin, Humalog® (Eli Lilly and Company) (4 μg). Blood glucose levels were determined using standard glucose determination kits at 0, 30, 60, 120, and 180 minutes post-injection, and hypoglycemia (%) was calculated relative to the baseline (t=0) blood glucose level of animals receiving saline control.
# [3] = tested on: C57 BL/6J mice; experiment: Long-term blood glucose buffering with second glucose challenge at 240 minutes in C57 BL/6J mice (Example 5); details: FIG. 4; for effect on rise in blood glucose levels after the initial glucose injection: overnight-fasted mice, 20% glucose (200 μl) i.p. with simultaneous s.c. GLP-1 1 μg or E4m 0.2 μg; for activity on blood glucose after second glucose challenge at 240 minutes after the first injection: peptide given only at first injection (GLP-1 1 μg, E4m 0.2 μg), glucose measured at 240, 270, 300 minutes
# Method: In order to determine the long-term ability of the exendin-4 derivative exendin-4 (Leu14, Lys20, Arg40) to buffer blood glucose levels, experiments were performed in which blood glucose levels in the presence of this exendin-4 derivative were determined at various times after an initial glucose challenge at 0 minutes and then a second glucose challenge at 240 minutes.
# Specifically, overnight-fasted C57 BL/6J mice weighing 20 g were injected with a 20% glucose solution (200 μl) intra-peritoneally and simultaneously subcutaneously injected with either a saline control, GLP-1 (1 μg), or exendin-4 (Leu14, Lys20, Arg40) (0.2 μg). Then, at 240 minutes after the initial injection a second injection of 20% glucose solution (200 μl) intra-peritoneally was performed. Blood glucose levels were determined using standard glucose determination kits at 0, 30, 60, 240, 270, and 300 minutes after the first injection.
# [4] = tested on: Healthy C57 BL mice; experiment: C-peptide secretion in healthy C57 BL mice, C-peptide radioimmunoassay (Example 8); details: abdominal injection of 5 μg in 200 μl saline, data not shown
# Method: In order to further investigate the insulinotropic properties of the exendin-4 derivative exendin-4 (Lys20, Arg40), experiments were conducted to measure the effect of administration of this compound on the production of C-peptide, which, as discussed previously, is produced in equal amounts as insulin by the cleavage of proinsulin. Healthy C57 BL mice were provided by Shanghai Laboratory Animal Center of Chinese Academy of Sciences. 40% glucose solution, 0.9% sodium chloride solution and exendin-4 (Lys20, Arg40) were used in the experiments. Insulin radioimmunoassay kits and C-peptide radioimmunoassay kits were purchased from Shanghai Institute of Biological Products Ministry of Health.
# Healthy C57 BL mice were divided into two groups. 50 μl of blood sample was taken from plexus venosus of the eye using a scaled capillary, the inner wall of which was rinsed with 1 mg/mL heparin and was air-dried beforehand. Mice in two groups were abdominally injected with 200 μl normal saline alone, or with a similar amount of saline containing 5 μg of exendin-4 (Lys20, Arg40), respectively at t=0. […] The C-peptide concentration in each sample was determined by following the method described by the radioimmunoassay kit, and the stimulating effect of exendin-4 (Lys20, Arg40) on C-peptide secretion was determined.
# [5] = tested on: NOD mice; experiment: Blood glucose after glucose challenge in NOD mice (Example 6); details: overnight-fasted NOD mice
# Method: Experiments to determine the effects on blood glucose levels of the exendin-4 derivative exendin-4 (Lys20, Arg40) were conducted in NOD mice provided by the Shanghai Laboratory Animal Center of Chinese Academy of Sciences. 0.9% sodium chloride solution and exendin-4 (Lys20, Arg40) were used in the assay. Plasma glucose testing kits were purchased from Shanghai Institute of Biological Products Ministry of Health.
# Overnight-fasted NOD mice were divided into two groups. Mice in the first group were abdominally injected with 200 μl of a solution containing 40% glucose and 1 μg of exendin-4 (Lys20, Arg40). Mice in the second (control) group […] with a glucose solution.
# 30 μl of blood sample was taken from retro-orbital zeinous sinus immediately using a scaled capillary which was treated beforehand with heparin, placed into 300 μl of normal saline and mixed with the saline. Erythrocytes were removed by centrifugation at 3,000 rpm, while blood serum was kept for glucose determination. Different blood samples were taken as described above at 30 min, 60 min and 120 min, and blood serum was separated. Glucose concentrations of three plasma samples were determined according to the method described in the testing kits, and the decreasing effect of exendin-4 (Lys20, Arg40) on blood glucose concentration was determined.
# [6] = tested on: NOD mice; experiment: Insulin secretion in NOD mice, insulin radioimmunoassay (Example 7); details: abdominal injection of 5 μg in 200 μl saline, 5, 10, 20, 30 min, data not shown
# Method: In order to determine whether the ability of the exendin-4 derivative exendin-4 (Lys20, Arg40) to decrease blood glucose in NOD mice is an insulinotropic effect, experiments were conducted to measure the effect of administration of this compound on insulin levels. In these experiments, NOD mice were provided by Shanghai Laboratory Animal Center of Chinese Academy of Sciences. 40% glucose solution, 0.9% sodium chloride solution, and exendin-4 (Lys20, Arg40) were used in the experiment. Insulin radioimmunoassay kits were purchased from Shanghai Institute of Biological Products Ministry of Health.
# NOD mice were divided into two groups. 50 μl of blood sample was taken from the plexus venosus of the eye using a scaled capillary, the inner wall of which was rinsed with 1 mg/mL heparin and was air-dried beforehand. Mice in the two groups were abdominally injected with either 200 μl normal saline alone, or with a similar amount of saline containing 5 μg exendin-4 (Lys20, Arg40), respectively at t=0. Different blood samples were taken as described above at 5 min, 10 min, 20 min and 30 min. […] Insulin concentrations of different samples were determined by following the methods described in the radioimmunoassay kit, and the stimulating effect of exendin-4 (Lys20, Arg40) on insulin secretion was determined.
Substance,effect on blood glucose levels after glucose challenge [1],effect on blood glucose levels after glucose challenge [2],effect on rise in blood glucose levels after the initial glucose injection [3],activity on blood glucose after second glucose challenge at 240 minutes after the first injection [3],stimulating effect on C-peptide secretion [4],"time after administration up to which dramatic fluctuations in glucose concentration are prevented ([5]; 200 μl 40% glucose with 1 μg peptide, abdominal injection)","blood glucose concentration after glucose challenge ([5]; abdominal injection of 200 μl 40% glucose with 1 μg peptide, 30, 60, 120 min, data not shown)",stimulating effect on insulin secretion [6]
"Glucagon-like peptide-1 (HAEGTFTSDVSSYLEGQAAKEFIAWLVKGR; listed as Homo sapiens) [GLP-1, peptide hormone secreted by intestinal cells that enhances insulin secretion, reference compound]",acted to buffer changes in blood glucose levels,resulted in the buffering of changes in blood glucose levels,drastically reduced,GLP-1 activity is essentially abolished,–,–,–,–
"Humalog®: commercially available insulin, Humalog® (Eli Lilly and Company)",–,resulted in the buffering of changes in blood glucose levels,–,–,–,–,–,–
"exendin-4 (Leu14, Lys20, Arg40)",produced a response profile virtually identical to that seen with the wild-type exendin-4 sequence,resulted in the buffering of changes in blood glucose levels,essentially eliminated,activity at times of 240 or more minutes after first injection is preserved,–,–,–,–
"exendin-4 (Lys20, Arg40)",–,–,–,–,significantly stimulates the secretion of C-peptide relative to the control,at least 2 hours,never showed a notable increase in blood glucose,significantly stimulates insulin secretion
exendin-4 [wild-type exendin-4],acted to buffer changes in blood glucose levels,–,–,–,–,–,–,–
